Measurements taken from US10266537B2, “3-acetylenyl-pyrazole-pyrimidine derivative, and preparation method therefor and uses thereof” (Si Chuan University, priority 2015, dated 2019).

How the values were obtained:
Experiment in all cases: Kinase inhibition assay (KinaseProfiler, 33P-ATP)
Assay type in all cases: biochemical
JNK2α2(h) = JNK2α2(h) (Homo sapiens (Human), UniProt P45984); conditions: read-out: The percentage of the remaining active protein
Fms(Y969C)(h) = Fms(Y969C)(h) (Homo sapiens (Human), UniProt P07333, Y969C); conditions: read-out: The percentage of the remaining active protein
Fms(Y969C)(h), sequence (P07333 20-972 Y969C): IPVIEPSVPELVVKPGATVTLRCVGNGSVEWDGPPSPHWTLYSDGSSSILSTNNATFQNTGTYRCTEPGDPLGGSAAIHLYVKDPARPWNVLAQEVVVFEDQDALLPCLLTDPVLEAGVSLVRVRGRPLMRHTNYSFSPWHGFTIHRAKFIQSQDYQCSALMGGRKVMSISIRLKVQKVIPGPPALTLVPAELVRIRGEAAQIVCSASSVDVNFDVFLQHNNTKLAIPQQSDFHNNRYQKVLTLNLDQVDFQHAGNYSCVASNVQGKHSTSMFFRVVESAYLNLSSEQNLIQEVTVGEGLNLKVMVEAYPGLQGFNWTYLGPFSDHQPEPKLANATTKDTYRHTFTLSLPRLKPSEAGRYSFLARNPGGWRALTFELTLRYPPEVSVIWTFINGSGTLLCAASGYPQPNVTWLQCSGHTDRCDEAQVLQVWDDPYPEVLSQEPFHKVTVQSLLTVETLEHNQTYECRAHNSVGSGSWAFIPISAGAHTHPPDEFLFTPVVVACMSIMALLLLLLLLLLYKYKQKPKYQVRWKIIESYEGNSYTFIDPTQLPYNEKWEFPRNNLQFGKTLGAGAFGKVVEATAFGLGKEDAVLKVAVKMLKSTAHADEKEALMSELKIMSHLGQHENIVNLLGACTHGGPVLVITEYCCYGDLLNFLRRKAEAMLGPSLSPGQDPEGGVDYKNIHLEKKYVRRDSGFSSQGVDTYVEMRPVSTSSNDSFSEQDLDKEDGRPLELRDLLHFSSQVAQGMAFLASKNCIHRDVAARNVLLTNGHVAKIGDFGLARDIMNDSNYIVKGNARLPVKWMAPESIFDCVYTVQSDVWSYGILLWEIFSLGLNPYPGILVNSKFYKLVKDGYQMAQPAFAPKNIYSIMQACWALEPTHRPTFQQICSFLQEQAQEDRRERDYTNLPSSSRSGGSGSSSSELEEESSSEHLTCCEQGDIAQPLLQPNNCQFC

Blk(m) = Blk(m) (Mus musculus (Mouse), UniProt P16277); conditions: read-out: The percentage of the remaining active protein
Blk(m), sequence (P16277 whole entry): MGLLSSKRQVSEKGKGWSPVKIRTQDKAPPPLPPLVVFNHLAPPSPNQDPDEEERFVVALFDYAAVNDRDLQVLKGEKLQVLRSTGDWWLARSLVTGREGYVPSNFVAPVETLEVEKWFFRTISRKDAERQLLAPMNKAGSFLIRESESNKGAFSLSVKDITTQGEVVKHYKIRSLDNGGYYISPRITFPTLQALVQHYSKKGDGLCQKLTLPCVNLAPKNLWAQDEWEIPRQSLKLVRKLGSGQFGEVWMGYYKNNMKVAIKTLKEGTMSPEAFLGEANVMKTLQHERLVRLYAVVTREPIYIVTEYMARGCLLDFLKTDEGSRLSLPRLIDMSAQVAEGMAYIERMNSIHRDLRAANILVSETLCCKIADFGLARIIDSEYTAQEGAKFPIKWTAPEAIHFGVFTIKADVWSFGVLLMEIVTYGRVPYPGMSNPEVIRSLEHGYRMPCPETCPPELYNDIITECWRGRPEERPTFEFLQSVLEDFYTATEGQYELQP

MKK6(h) = MKK6(h) (Homo sapiens (Human), UniProt P52564); conditions: read-out: The percentage of the remaining active protein
Aurora-C(h) = Aurora-C(h) (Homo sapiens (Human), UniProt Q9UQB9); conditions: read-out: The percentage of the remaining active protein
EphA4 = EphA4 (Homo sapiens (Human), UniProt P54764); conditions: EphA4(h), read-out: The percentage of the remaining active protein
DYRK2(h) = DYRK2(h) (Homo sapiens (Human), UniProt Q92630); conditions: read-out: The percentage of the remaining active protein
GCN2(h) = GCN2(h) (Homo sapiens (Human), UniProt Q9P2K8); conditions: read-out: The percentage of the remaining active protein
PAR-1Bα(h) = PAR-1Bα(h) (Homo sapiens (Human), UniProt Q7KZI7); conditions: read-out: The percentage of the remaining active protein
CLK1(h) = CLK1(h) (Homo sapiens (Human), UniProt P49759); conditions: read-out: The percentage of the remaining active protein
EphA3 = EphA3 (Homo sapiens (Human), UniProt P29320); conditions: EphA3(h), read-out: The percentage of the remaining active protein
EphA3, sequence (P29320 21-983): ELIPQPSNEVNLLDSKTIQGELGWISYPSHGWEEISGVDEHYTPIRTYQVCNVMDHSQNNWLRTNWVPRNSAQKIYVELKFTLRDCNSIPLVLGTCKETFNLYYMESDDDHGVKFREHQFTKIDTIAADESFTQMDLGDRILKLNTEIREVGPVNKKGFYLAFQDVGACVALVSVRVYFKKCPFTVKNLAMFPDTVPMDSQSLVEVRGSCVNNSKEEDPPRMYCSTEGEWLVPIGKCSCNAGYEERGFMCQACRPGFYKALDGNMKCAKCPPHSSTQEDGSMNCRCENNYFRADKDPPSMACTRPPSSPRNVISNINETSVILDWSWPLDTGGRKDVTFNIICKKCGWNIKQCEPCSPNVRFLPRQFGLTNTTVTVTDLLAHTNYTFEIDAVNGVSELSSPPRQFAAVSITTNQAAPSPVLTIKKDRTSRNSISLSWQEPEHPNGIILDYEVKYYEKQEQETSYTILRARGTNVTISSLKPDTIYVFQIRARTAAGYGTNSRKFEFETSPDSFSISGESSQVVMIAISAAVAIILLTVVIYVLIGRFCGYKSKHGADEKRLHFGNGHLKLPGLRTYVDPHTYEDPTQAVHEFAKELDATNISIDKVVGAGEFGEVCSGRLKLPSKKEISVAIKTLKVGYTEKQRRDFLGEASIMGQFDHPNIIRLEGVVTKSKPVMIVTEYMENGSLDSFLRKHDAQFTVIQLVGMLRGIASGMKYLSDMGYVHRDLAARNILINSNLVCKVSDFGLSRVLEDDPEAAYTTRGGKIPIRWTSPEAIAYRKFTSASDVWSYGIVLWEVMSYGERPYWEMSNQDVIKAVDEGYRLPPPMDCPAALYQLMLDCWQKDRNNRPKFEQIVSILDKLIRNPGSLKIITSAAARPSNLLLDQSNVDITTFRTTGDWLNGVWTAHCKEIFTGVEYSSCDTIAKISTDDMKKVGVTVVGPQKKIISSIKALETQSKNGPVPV

EGFR(T790M) = EGFR(T790M) (Homo sapiens (Human), UniProt P00533, T790M); conditions: EGFR(T790M)(h), read-out: The percentage of the remaining active protein
TAO1(h) = TAO1(h) (Homo sapiens (Human), UniProt Q7L7X3); conditions: read-out: The percentage of the remaining active protein
CaMKIIδ(h) = CaMKIIδ(h) (Homo sapiens (Human), UniProt Q13557); conditions: read-out: The percentage of the remaining active protein
STK25(h) = STK25(h) (Homo sapiens (Human), UniProt O00506); conditions: read-out: The percentage of the remaining active protein
CK1γ1(h) = CK1γ1(h) (Homo sapiens (Human), UniProt Q9HCP0); conditions: read-out: The percentage of the remaining active protein
CK1γ1(h), sequence (Q9HCP0 whole entry): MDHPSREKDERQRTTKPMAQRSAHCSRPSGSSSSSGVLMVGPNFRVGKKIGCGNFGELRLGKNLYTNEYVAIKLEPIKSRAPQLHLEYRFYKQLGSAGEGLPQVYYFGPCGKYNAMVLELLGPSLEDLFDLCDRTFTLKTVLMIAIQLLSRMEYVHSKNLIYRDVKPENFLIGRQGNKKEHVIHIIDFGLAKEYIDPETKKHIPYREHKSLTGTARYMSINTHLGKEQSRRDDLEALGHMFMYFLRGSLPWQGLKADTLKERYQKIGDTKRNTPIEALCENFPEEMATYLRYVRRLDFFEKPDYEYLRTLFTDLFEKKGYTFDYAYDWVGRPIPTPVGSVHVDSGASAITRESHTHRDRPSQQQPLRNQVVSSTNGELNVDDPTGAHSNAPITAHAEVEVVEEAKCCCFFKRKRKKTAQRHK

Snk(h) = Snk(h) (Homo sapiens (Human), UniProt Q9NYY3); conditions: read-out: The percentage of the remaining active protein
CaMKIV(h) = CaMKIV(h) (Homo sapiens (Human), UniProt Q16566); conditions: read-out: The percentage of the remaining active protein
Hck = Hck (Homo sapiens (Human), UniProt P08631); conditions: Hck(h); 10 μM; read-out: The percentage of the remaining active protein
MKK7β(h) = MKK7β(h) (Homo sapiens (Human), UniProt O14733); conditions: read-out: The percentage of the remaining active protein
MST2(h) = MST2(h) (Homo sapiens (Human), UniProt Q13188); conditions: read-out: The percentage of the remaining active protein
MST2(h), sequence (Q13188 whole entry): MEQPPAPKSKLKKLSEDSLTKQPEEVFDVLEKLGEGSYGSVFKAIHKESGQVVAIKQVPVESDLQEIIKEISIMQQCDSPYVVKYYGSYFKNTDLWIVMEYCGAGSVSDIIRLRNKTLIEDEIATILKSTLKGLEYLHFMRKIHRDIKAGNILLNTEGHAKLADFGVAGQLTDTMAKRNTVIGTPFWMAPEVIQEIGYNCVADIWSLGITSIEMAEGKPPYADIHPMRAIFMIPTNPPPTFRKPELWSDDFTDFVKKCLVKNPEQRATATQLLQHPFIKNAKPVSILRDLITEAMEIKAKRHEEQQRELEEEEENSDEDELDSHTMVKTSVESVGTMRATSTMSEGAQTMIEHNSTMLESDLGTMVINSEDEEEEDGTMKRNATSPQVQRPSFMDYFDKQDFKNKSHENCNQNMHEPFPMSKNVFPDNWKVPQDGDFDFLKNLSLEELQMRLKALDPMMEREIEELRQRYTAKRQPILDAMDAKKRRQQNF

ATR/ATRIP(h) = ATR/ATRIP(h) (Homo sapiens (Human), UniProt Q13535); conditions: read-out: The percentage of the remaining active protein
ASK1(h) = ASK1(h) (Homo sapiens (Human), UniProt Q99683); conditions: read-out: The percentage of the remaining active protein
PKCβI(h) = PKCβI(h) (Homo sapiens (Human), UniProt P05771); conditions: read-out: The percentage of the remaining active protein
Flt3(h) = Flt3(h) (Homo sapiens (Human), UniProt P36888); conditions: 10 μM, read-out: The percentage of the remaining active protein
IRAK1(h) = IRAK1(h) (Homo sapiens (Human), UniProt P51617); conditions: read-out: The percentage of the remaining active protein
IRAK1(h), sequence (P51617 whole entry): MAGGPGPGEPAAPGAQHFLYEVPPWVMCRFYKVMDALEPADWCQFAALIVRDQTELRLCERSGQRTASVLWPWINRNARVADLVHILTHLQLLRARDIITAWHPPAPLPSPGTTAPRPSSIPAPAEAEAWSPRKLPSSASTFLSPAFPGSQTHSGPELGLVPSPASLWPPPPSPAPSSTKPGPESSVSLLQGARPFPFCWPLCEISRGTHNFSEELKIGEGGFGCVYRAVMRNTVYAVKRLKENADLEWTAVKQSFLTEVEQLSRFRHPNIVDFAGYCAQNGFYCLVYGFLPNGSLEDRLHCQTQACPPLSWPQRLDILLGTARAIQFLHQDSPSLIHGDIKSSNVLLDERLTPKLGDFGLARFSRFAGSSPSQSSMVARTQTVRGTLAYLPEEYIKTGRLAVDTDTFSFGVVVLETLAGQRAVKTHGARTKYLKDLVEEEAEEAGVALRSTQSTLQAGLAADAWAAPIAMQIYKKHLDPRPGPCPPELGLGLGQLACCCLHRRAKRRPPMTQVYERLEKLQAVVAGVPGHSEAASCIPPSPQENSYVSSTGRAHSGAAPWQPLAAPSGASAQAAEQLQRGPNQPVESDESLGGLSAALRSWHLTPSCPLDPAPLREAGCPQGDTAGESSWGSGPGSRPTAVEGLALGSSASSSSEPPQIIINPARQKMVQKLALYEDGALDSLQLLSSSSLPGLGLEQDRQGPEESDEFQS

CK2(h) = CK2(h) (Homo sapiens (Human), UniProt P68400); conditions: read-out: The percentage of the remaining active protein
ALK2(h) = ALK2(h) (Homo sapiens (Human), UniProt Q04771); conditions: read-out: The percentage of the remaining active protein
ALK2(h), sequence (Q04771 21-509): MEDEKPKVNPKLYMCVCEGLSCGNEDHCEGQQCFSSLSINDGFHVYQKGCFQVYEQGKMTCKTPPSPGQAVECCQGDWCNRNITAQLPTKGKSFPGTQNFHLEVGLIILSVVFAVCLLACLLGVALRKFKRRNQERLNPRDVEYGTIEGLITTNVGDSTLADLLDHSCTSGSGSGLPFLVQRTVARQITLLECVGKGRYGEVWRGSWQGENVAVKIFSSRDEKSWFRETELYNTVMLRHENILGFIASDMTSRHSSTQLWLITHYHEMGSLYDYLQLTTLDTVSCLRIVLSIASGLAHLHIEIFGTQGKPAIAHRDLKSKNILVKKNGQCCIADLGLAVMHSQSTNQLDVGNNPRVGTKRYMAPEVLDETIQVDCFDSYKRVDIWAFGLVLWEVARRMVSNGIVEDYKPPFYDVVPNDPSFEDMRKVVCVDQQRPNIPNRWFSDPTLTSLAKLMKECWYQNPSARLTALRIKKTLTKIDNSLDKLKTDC

IRE1(h) = IRE1(h) (Homo sapiens (Human), UniProt O75460); conditions: read-out: The percentage of the remaining active protein
[1] = molecular target: PI3 Kinase (p110a(E545K)/p85a)(h) (Homo sapiens (Human), UniProt P42336, E545K); conditions: read-out: The percentage of the remaining active protein
CLK2(h) = CLK2(h) (Homo sapiens (Human), UniProt P49760); conditions: read-out: The percentage of the remaining active protein
CK1δ(h) = CK1δ(h) (Homo sapiens (Human), UniProt P48730); conditions: read-out: The percentage of the remaining active protein
DNA-PK(h) = DNA-PK(h) (Homo sapiens (Human), UniProt P78527); conditions: read-out: The percentage of the remaining active protein
ATM(h) = ATM(h) (Homo sapiens (Human), UniProt Q13315); conditions: read-out: The percentage of the remaining active protein
MAPKAP-K2(h) = MAPKAP-K2(h) (Homo sapiens (Human), UniProt P49137); conditions: read-out: The percentage of the remaining active protein
NEK2(h) = NEK2(h) (Homo sapiens (Human), UniProt P51955); conditions: read-out: The percentage of the remaining active protein
NEK2(h), sequence (P51955 whole entry): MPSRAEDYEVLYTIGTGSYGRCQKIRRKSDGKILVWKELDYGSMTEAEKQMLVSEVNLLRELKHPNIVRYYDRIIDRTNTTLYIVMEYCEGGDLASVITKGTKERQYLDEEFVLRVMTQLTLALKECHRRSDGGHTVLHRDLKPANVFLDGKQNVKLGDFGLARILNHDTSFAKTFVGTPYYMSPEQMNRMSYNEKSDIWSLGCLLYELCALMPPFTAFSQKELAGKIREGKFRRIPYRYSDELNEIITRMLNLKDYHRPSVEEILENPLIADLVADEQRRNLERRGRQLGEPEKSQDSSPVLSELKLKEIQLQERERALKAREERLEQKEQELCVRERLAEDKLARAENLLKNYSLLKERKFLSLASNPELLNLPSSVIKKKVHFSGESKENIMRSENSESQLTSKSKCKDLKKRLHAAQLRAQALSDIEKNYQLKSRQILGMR

Compound: Cc1ccc(NC(=O)c2ccc(C)c(C(F)(F)F)c2)cc1C#Cc1nn([C@H]2CC[C@H](O)CC2)c2ncnc(N)c12 [Compound 93]
- remaining activity at 10 µM (JNK2α2(h)): 13%
- remaining activity at 10 µM (Fms(Y969C)(h)): 13%
- remaining activity at 10 µM (Blk(m)): 1%
- remaining activity at 10 µM (MKK6(h)): 43%
- remaining activity at 10 µM (Aurora-C(h)): 101%
- remaining activity at 10 µM (EphA4): -2%
- remaining activity at 10 µM (DYRK2(h)): 107%
- remaining activity at 10 µM (GCN2(h)): 50%
- remaining activity at 10 µM (PAR-1Bα(h)): 98%
- remaining activity at 10 µM (CLK1(h)): 64%
- remaining activity at 10 µM (EphA3): 3%
- remaining activity at 10 µM (EGFR(T790M)): 4%
- remaining activity at 10 µM (TAO1(h)): 18%
- remaining activity at 10 µM (CaMKIIδ(h)): 89%
- remaining activity at 10 µM (STK25(h)): 66%
- remaining activity at 10 µM (CK1γ1(h)): 83%
- remaining activity at 10 µM (Snk(h)): 109%
- remaining activity at 10 µM (CaMKIV(h)): 93%
- remaining activity at 10 µM (Hck): 0%
- remaining activity at 10 µM (MKK7β(h)): 70%
- remaining activity at 10 µM (MST2(h)): 63%
- remaining activity at 10 µM (ATR/ATRIP(h)): 94%
- remaining activity at 10 µM (ASK1(h)): 127%
- remaining activity at 10 µM (PKCβI(h)): 100%
- remaining activity at 10 µM (Flt3(h)): 73%
- remaining activity at 10 µM (IRAK1(h)): 30%
- remaining activity at 10 µM (CK2(h)): 105%
- remaining activity at 10 µM (ALK2(h)): 77%
- remaining activity at 10 µM (IRE1(h)): 94%
- remaining activity at 10 µM [1]: 92%
- remaining activity at 10 µM (CLK2(h)): 47%
- remaining activity at 10 µM (CK1δ(h)): 88%
- remaining activity at 10 µM (DNA-PK(h)): 94%
- remaining activity at 10 µM (ATM(h)): 102%
- remaining activity at 10 µM (MAPKAP-K2(h)): 104%
- remaining activity at 10 µM (NEK2(h)): 117%
